Read-outs that look alike come from different tables or passages of the source.
What was measured:
[1] = tested on: human hTERT-immortalized adipose tissue-derived MSCs; test: PPARG splicing in adipose tissue-derived MSCs treated with recombinant cytokines; format: cell-based
C57BL/6J mice = test: Pparg splicing in epididymal adipose tissue of LPS-injected mice; format: in vivo, mouse; conditions: inflamed adipose tissue, n=6
[2] = tested on: insulin-naive patients with type 2 diabetes; test: Icodec phase 2 titration trial, CGM post hoc; format: in vivo, human; conditions: titration B, weeks 15&16
[3] = format: in vivo, human
[4] = Insulin icodec titration trial, CGM hypoglycaemia duration, insulin-naive T2D; format: in vivo, human
[5] = 3-year prospective observational study of quadruple oral therapy in T2DM; format: in vivo, human; conditions: empagliflozin 25 mg/day, dapagliflozin 10 mg/day
[6] = Swedish registry cohorts, causal random forest, change after 6 months versus SU; format: in vivo, human; conditions: after 6 months treatment
[7] = single dose 50 mg

In the case of TNFα, the “Increase of PpargΔ5/cPparg ratio” value [1] is reported as 2.5 fold.

In the case of lipopolysaccharides [LPS], the “Increase of PpargΔ5/cPparg ratio” value (C57BL/6J mice) is reported as 3.5 fold.

In the case of Insulin icodec, the “patients with >70% TIR and TBR<3.9 mmol/L <4%” value [2] is reported as 80.0%, the “Overall hypoglycaemic episode duration, median (IQR)” value ([3]; with 100% loading dose) is reported as 40.0 (20.0, 75.0) min and the “Overall hypoglycaemic episode duration, median (IQR)” value ([3]; without loading dose) is reported as 40.0 (25.0, 80.0) min. For the same compound, the “Overall hypoglycaemic episode duration, median (IQR)” value ([4]; titration A (4.4-7.2 mmol/L; ±21 U/week), CGM <3.9 mmol/L for at least 15 min) was 35.0 (20.0, 70.0) min, the “Overall hypoglycaemic episode duration, median (IQR)” value ([4]; titration B (4.4-7.2 mmol/L ±28 U/week)) was 35.0 (20.0, 70.0) min and the “Overall hypoglycaemic episode duration, median (IQR)” value ([4]; titration C (3.9-6.0 mmol/L ±28 U/week)) was 39.0 (24.0, 70.0) min.

In the case of `CCOc1ccc(Cc2cc([C@@H]3O[C@H](CO)[C@@H](O)[C@H](O)[C@H]3O)ccc2Cl)cc1` [dapagliflozin], the “Change in body weight at 3 years” value [5] is reported as -1.0 ± 3.3 kg, the “Change in fasting plasma glucose at 3 years” value [5] is reported as -47.4 ± 61.7 mg/dL and the “Average treatment effect on change in HbA1c compared to SU” value [6] is reported as -1.10 [-1.92, -0.27] mmol/mol. The “Absolute risk reduction for the primary outcome” value (UACR >3500 mg/g, 95%CI 3.0, 24.5) was 13.8%, the “Absolute risk reduction for the primary outcome” value (UACR >1000 to ≤3500 mg/g, 95%CI 3.6, 10.1) was 6.9% and the adverse events [7] was “no adverse events”.

From PMC8408311 (Diabetologia, 2021)
